We go through 4 molecules from patent US6686391B2, “N-chlorophenylcarbamate and N-chlorophenylthiocarbamate compositions” (University of Arizona Foundation, priority 1995, dated 2004).

In assay [1] the test system is HIV replication in monocytes (chronic HIV-1 infected promonocytic cells U1). As to the kind of experiment: HIV chronic study, chronically HIV-1 infected promonocytic U1 cells. The assay is classed as cell-based. As for the experimental part: (§1) Chronic HIV-1 infected promonocytic cells U1 were derived from an acute HIV-1 infection of the promonocytic cell line, U937. The chronic HIV-1 infected T-cells, ACH-2, were derived from an acute HIV-1 infection of the T cell line, A3.01.
(§2) These cells were cultured in medium and the phorbol ester, PMA. PMA causes the cells (both U1 and ACH-2) to be activated and not divide but it also causes the U-1 cells to differentiate. […] Cell viability was measured when these cell lines were treated with the test compounds.
(§3) Both cell lines constituitively produce a small amount of HIV-1. ACH-2 cell lines tend to produce more HIV-1 than U1 cells as shown by p-24 ELISA. When either cell line is cultured in the presence of PMA there is an increase in the quantity of HIV-1 produced as measured by the p-24 antigen ELISA.
(§4) In addition, the number of […] positive HIV mRNA expressing cells per microscopic field is measured. Comparisons can be made from these numbers since the same number of cells were adhered to the glass slides for each drug concentration (10×10^6 cells/ml).

For assay [2], the system named is HIV replication in T-cells (chronic HIV-1 infected T-cells, ACH-2). The assay is described as follows: HIV chronic study, chronically HIV-1 infected ACH-2 T-cells. The assay is classed as cell-based. The conditions noted are these: chronic HIV model, ACH-2 cells. On the procedure: as §1, §2, §3, §4
The next assay deals with HIV. The assay is described as follows: Acute HIV study, in vitro acute model. The assay is classed as cell-based. The conditions noted are these: in vitro acute model for HIV. As for the experimental part:
In an in vitro acute model for HIV chloropropham inhibited viral replication by 47% at 10 μg/ml and AZT inhibited viral replication by 98% at 1 μg/ml. The therapeutic index for chloropropham is 2.5 compared to 12,500 for AZT. The therapeutic index is ratio of toxic dose of the drug to the efficacious dose of the drug.

Assay [3] relates to herpes. As to the kind of experiment: In vivo herpes screening test. On the set-up: species or system mice. As for the experimental part:
In an in vivo herpes screening test, at a dose of 150 mg/kg dose, 60% of the mice survived with a 10.2 mean death date. The positive control was acyclovir at 75 mg/kg dose; 60% of the mice survived with a mean death date of 17.2 days.

Assay [4] relates to breast, colon, non-small cell lung and ovarian tumors. The assay is described as follows: In vitro human tumor colony forming units test, continuous exposure. The assay is classed as cell-based. On the procedure:
Solid tumors removed from patients are minced into 2 to 5 mm fragments and immediately placed in McCoy's Medium 5A plus 10% heat inactivated newborn calf serum plus 1% penicillin/streptomycin. Within 4 hours, these solids tumors are mechanically disassociated with scissors, forced through No. 100 stainless steel mesh, through 25 gauge needles, and then washed with McCoy's medium as described above. Ascitic, pleural, pericardial fluids and bone marrow are obtained by standard techniques. The fluid or marrow is placed in sterile containers containing 10 units of preservative free heparin per ml. of malignant fluid or marrow. After centrifugation at 150×g for 10 minutes, the cells are harvested and washed with McCoy's medium plus 10% heat inactivated calf serum. The viability of cell suspensions is determined on a hemocytometer with trypan blue.
Cells to be cloned are suspended in 0.3% agar in enriched CMRL1066 supplemented with 15% heat inactivated horse serum, penicillin (100 units/ml), streptomycin (2 mg/ml), glutamine (2 mM), insulin (3 units/ml), asparagine (0.6 mg/ml), and HEPES buffer (2 mM). For the continuous exposure test each compound is added to the above mixture. […] If there is <30% colonies in the positive control when compared to the untreated control, the test is evaluated.

A further assay relates to colon tumor cells (HT29). As to the kind of experiment: MTT cell viability test, colon tumor cells. The format is cell-based. The conditions noted are these: Homo sapiens, HT-29, 120 h. As for the experimental part: (§5) The following cell culture tests were performed to test the toxicity of N-chlorophenylcarbamates and N-chlorophenylthiocarbamates compounds on colon, breast and lung human tumor cells. The viability of the cells were tested by looking at MTT (3-[4,5-dimethylthiazol-2-yl]-2,5-diphenyltetrazolium bromide) reduction. MTT assay is a well known measure of cell viability.
(§6) The colon tumor cells (HT29 from American Type Culture Collection (ATCC)) and the breast cells (MX1 from cell lines from ATCC) were cultured in Eagle's Minimal Essential Medium with 10% fetal bovine serum. The lung tumor cells (A549 from ATCC cell lines) were cultured in Ham's F12 medium with 10% fetal bovine serum.
(§7) The tumor cells were passaged and seeded into culture flasks at the desired cell densities. The culture medium was decanted and the cell sheets were washed twice with phosphate buffered saline (PBS). The cells were trypsinized and triturated prior to seeding the flasks. Unless otherwise indicated the cultures were incubated at 37±1° C. in a humidified atmosphere of 5±1% carbon dioxide in air. The cultures were incubated until they were 50-80% confluent.
(§8) The cells were subcultured when the flasks were subconfluent. The medium was aspired from the flasks and the cell sheets rinsed twice with PBS. Next, the Trypsin Solution was added to each flask to cover the cell sheet. The Trypsin Solution was removed after 30-60 seconds and the flasks were incubated at room temperature for two to six minutes. When 90% of the cells became dislodged, growth medium was added. The cells were removed by trituration and transferred to a sterile centrifuge tube. The concentration of cells in the suspension was determined, and an appropriate dilution was made to obtain a density of 5000 cells/ml. The cells were subcultured into the designated wells of the 96-well bioassay plates (200 microliter cell suspension per well). PBS was added to all the remaining wells to maintain humidity. The plates were then incubated overnight before test article treatment.
(§9) Each dose of test article was tested by treating quadruplicate wells of cultures with 100 microliter of each dilution. Those wells designated as solvent controls received an additional 100 microliters of methanol control; negative controls wells received an additional 100 microliters of treatment medium. PBS was added to the remaining wells not treated with test article or medium. The plates were then incubated for approximately 5 days. […]
(§10) The absorbance at 550 nm (OD550) of each well was measured with a Molecular Devices (Menlo Park, Calif.) VMax plate reader.
(§11) The mean OD550 of the solvent control wells and that of each test article dilution, and that of each of the blank wells and the positive control were calculated. […]

The test system of the next assay is breast cells (MX1). The assay is described as follows: MTT cell viability test, breast cells. The conditions noted are these: Homo sapiens, 120 h. The format is cell-based. As for the experimental part: as §5, §6, §7, §8, §9, §10, §11
For orientation: Formazan colour is commonly taken as a measure of viable cells.

The test system of the next assay is lung tumor cells (A549). The assay is described as follows: MTT cell viability test, lung tumor cells. The format is cell-based. The conditions noted are these: Homo sapiens, A549, 120 h. On the procedure: as §5, §6, §7, §8, §9, §10, §11
The next assay deals with Broncheal Cells. As to the kind of experiment: EC-50 in normal healthy cells, bronchial cells. The format is cell-based.
For a further assay, the system named is Kerotinoyle Cells. As to the kind of experiment: EC-50 in normal healthy cells, keratinocytes. The conditions noted are these: Keratinocyte. The assay is classed as cell-based.
Another assay concerns Fibroblasts. As to the kind of experiment: EC-50 in normal healthy cells, fibroblasts. The format is cell-based. To be noted: Fibroblast.
The next assay has as its system breast cancer (MXI). As to the kind of experiment: In vivo mouse model for breast cancer.
In a further assay the test system is leukemia (P388). The assay is described as follows: In vivo mouse model for leukemia.
A further assay concerns murine melanoma (B16). The assay is described as follows: In vivo mouse model for murine melanoma.
The subject of assay [5] is influenza. As to the kind of experiment: In vivo model for influenza.
The subject of assay [6] is influenza. The assay is described as follows: In vitro model for influenza. The assay is classed as cell-based.
Assay [7] concerns herpes. The assay is described as follows: In vitro herpes screening model. The assay is classed as cell-based.
Another assay relates to Rhinovirus. The assay is described as follows: In vivo Rhinovirus screening test.
The conditions of assay [8]: doses from 50-400 mg/kg; 1958, 1959, 1972; cited from earlier work.
The mark [9] stands for this setting: 75 mg/kg dose, positive control.

A word on the inhibition: it is the percentage by which the read-out fell short of the control.

Converted amounts (≈) assume the structure as drawn. Where two headings read alike, the source gives them in different places. Where only a bound is given, the exact number is not on record here.

As to `CC(C)OC(=O)Nc1cccc(Cl)c1` [Chloropropham, (3-chlorophenyl)carbamic acid 1-methylethyl ester], the “suppression of HIV replication in monocytes” value in assay [1] (chronic HIV model, U1 cells) amounted to 79%. In addition, the “increase in HIV replication in T-cells” value in assay [2] stood at 101%. For the same molecule, the inhibition at 10 µg/mL in the assay on HIV (Human immunodeficiency virus 1, 10 μg/ml, read-out: inhibition of viral replication) came to 47%. This molecule also came in with a mean death date in the assay on herpes [3] (150 mg/kg dose) of 10.2. The same molecule had a mice survived in the assay with herpes [3] (150 mg/kg dose) of 60%. The “effective against tumors (fraction)” value in assay [4] (100 μg/ml, continuous exposure, breast, colon, non-small cell lung and ovarian tumors) is reported as 6/7. In addition, the effectiveness against tumors result in [4] (1 and 10.0 μg/ml) is recorded as “not effective”. In addition, the EC50 in the assay with colon tumor cells (HT29) (read-out: EC-50 Result HT29, MTT, 5 day incubation, first HT29 column) came to 13.3 µg/mL (≈ 62.2 µM); in the assay on colon tumor cells (HT29) (read-out: EC-50 Result HT29, MTT, 5 day incubation, second HT29 column), 11.4 µg/mL (≈ 53.4 µM); in the assay on breast cells (MX1) (read-out: EC-50 Result MX1, MTT, 5 day incubation, first MX1 column), 91.8 µg/mL (≈ 430 µM); in the assay on breast cells (MX1) (read-out: EC-50 Result MX1, MTT, 5 day incubation, second MX1 column), 108 µg/mL (≈ 505 µM); in the assay with lung tumor cells (A549) (read-out: EC-50 Result A549, MTT, 5 day incubation, first A549 column), 12.6 µg/mL (≈ 59 µM); in the assay with lung tumor cells (A549) (read-out: EC-50 Result A549, MTT, 5 day incubation, second A549 column), 92.5 µg/mL (≈ 433 µM). The EC50 in the assay on Broncheal Cells (read-out: EC-50 Broncheal Cells, normal healthy cells, second value) was > 15.2 µg/mL; in the assay on Kerotinoyle Cells (read-out: EC-50 Kerotinoyle Cells, normal healthy cells, first value), 3.9 µg/mL (≈ 18.3 µM); in the assay with Kerotinoyle Cells (read-out: EC-50 Kerotinoyle Cells, normal healthy cells, second value) it was 13 µg/mL (≈ 60.8 µM); in the assay on Fibroblasts (read-out: EC-50 Fibroblasts, normal healthy cells, first value), > 152 µg/mL; with Fibroblasts (read-out: EC-50 Fibroblasts, normal healthy cells, second value), 64.2 µg/mL (≈ 300 µM). Moreover, the “activity in in vivo mouse model for breast cancer (MXI)” value in the assay with breast cancer (MXI) is given as “no activity”. In addition, the “activity in in vivo mouse model for leukemia (P388)” value with leukemia (P388) was “no activity”. The “activity in in vivo mouse model for murine melanoma (B16)” value with murine melanoma (B16) was “no activity”. The “activity in in vivo model for influenza” value with influenza [5] is “did not show activity”. The “activity in in vitro model for influenza” value in the assay on influenza [6] is given as “did not show activity”. Moreover, the “activity in in vitro herpes screening model” value in the assay with herpes [7] was “Nor was it active”. Besides, the “activity in in vivo Rhinovirus screening test” value in the assay with Rhinovirus was “Nor was it active”. Besides, the “activity in National Cancer Institute tests” value in assay [8] was “no activity”.

For the molecule `Cc1cn([C@H]2C[C@H](N=[N+]=[N-])[C@@H](CO)O2)c(=O)[nH]c1=O` [AZT, reference compound], in assay [1], the “action in the HIV chronic model” value is recorded as “no action”. Moreover, the “inhibition of viral replication” value in the assay with HIV (1 μg/ml) came out at 98%.

On to `COc1cccc2c1C(=O)c1c(O)c3c(c(O)c1C2=O)C[C@@](O)(C(=O)CO)C[C@@H]3O[C@H]1C[C@H](N)[C@H](O)[C@H](C)O1` [Adriamycin, doxorubicin (adriamycin), reference compound], for which the EC50 with colon tumor cells (HT29) (MTT, 5 day incubation, first HT29 column, read-out: EC-50 Result HT29) amounted to 0.003 µg/mL (≈ 0.00552 µM); with colon tumor cells (HT29) (MTT, 5 day incubation, second HT29 column, read-out: EC-50 Result HT29), 0.006 µg/mL (≈ 0.011 µM); in the assay on breast cells (MX1) (MTT, 5 day incubation, first MX1 column, read-out: EC-50 Result MX1), 0.02 µg/mL (≈ 0.0368 µM); in the assay on breast cells (MX1) (MTT, 5 day incubation, second MX1 column, read-out: EC-50 Result MX1), 0.001 µg/mL (≈ 0.00184 µM); with lung tumor cells (A549) (MTT, 5 day incubation, first A549 column, read-out: EC-50 Result A549), 0.03 µg/mL (≈ 0.0552 µM); in the assay with lung tumor cells (A549) (MTT, 5 day incubation, second A549 column, read-out: EC-50 Result A549), 0.009 µg/mL (≈ 0.0166 µM). The EC50 in the assay with Broncheal Cells (normal healthy cells, first value, read-out: EC-50 Broncheal Cells) came to 0.015 µg/mL (≈ 0.0276 µM); with Broncheal Cells (normal healthy cells, second value, read-out: EC-50 Broncheal Cells), 0.002 µg/mL (≈ 0.00368 µM); in the assay on Kerotinoyle Cells (normal healthy cells, first value, read-out: EC-50 Kerotinoyle Cells) it was 0.0035 µg/mL (≈ 0.00644 µM); in the assay with Kerotinoyle Cells (normal healthy cells, second value, read-out: EC-50 Kerotinoyle Cells) it was 0.0093 µg/mL (≈ 0.0171 µM); with Fibroblasts (normal healthy cells, first value, read-out: EC-50 Fibroblasts) it was 0.065 µg/mL (≈ 0.12 µM); with Fibroblasts (normal healthy cells, second value, read-out: EC-50 Fibroblasts) it was 0.1 µg/mL (≈ 0.184 µM).

`Nc1nc2c(ncn2COCCO)c(=O)[nH]1` [acyclovir, reference compound]: in the assay with herpes [3] (setting [9]), the mean death date was 17.2 days and the mice survived was 60%.
